Source: the CheMixHub ionic liquid set
Several values for one entry are separate records, joined by “and”; a condition that tells them apart may be missing. Identical values can stand only once.

Test: xn = mol fraction of the nth substance listed

C=CC[n+]1ccn(C)c1.[Cl-] + O
101 kPa
Settings | viscosity [mPa·s]
298.15 K, x2 = 0.193 | 697
298.15 K, x2 = 0.267 | 427
303.15 K, x2 = 0.335 | 184
313.15 K, x2 = 0.045 | 473
313.15 K, x2 = 0.126 | 312
323.15 K, x2 = 0.335 | 61
333.15 K, x2 = 0.091 | 108
353.15 K, x2 = 0.126 | 36.9
353.15 K, x2 = 0.267 | 24.3
363.15 K, x2 = 0.091 | 28.6
363.15 K, x2 = 0.126 | 25.6
373.15 K, x2 = 0.126 | 18.58
373.15 K, x2 = 0.193 | 15.98
373.15 K, x2 = 0.267 | 13.37

CCCCCCCCCCCCCC[N+](C)(C)C.[Br-] + O
298.15 K, 101 kPa
Settings | viscosity [mPa·s]
x1 = 2.973e-05 | 0.8984
x1 = 4.144e-05 | 0.8992
x1 = 4.541e-05 | 0.9002
x1 = 6.289e-05 | 0.9005
x1 = 6.739e-05 | 0.9013
x1 = 7.262e-05 | 0.9019
x1 = 0.0001005 | 0.9029
x1 = 0.0001191 | 0.9053
x1 = 0.000178 | 0.9083

CCCCCCCCCCCC[n+]1ccn(C)c1.[Br-] + O
298.15 K, 100 kPa, frequency 0.001 MHz
Settings | electrical conductivity [S/m]
x1 = 3.604e-05 | 0.018
x1 = 7.207e-05 | 0.036
x1 = 9.009e-05 | 0.045
x1 = 0.0001081 | 0.054
x1 = 0.0001261 | 0.065
x1 = 0.0001441 | 0.072
x1 = 0.0001622 | 0.081
x1 = 0.0001802 | 0.089
x1 = 0.0002522 | 0.101
x1 = 0.0003242 | 0.111

CCCCCCCCCCCn1cc[n+](C)c1.O=S(=O)([N-]S(=O)(=O)C(F)(F)F)C(F)(F)F + O
Settings | viscosity [mPa·s]
338.15 K, 100 kPa, x2 = 0.1567 | 20.54

CCCCC[n+]1ccccc1.N#C[N-]C#N + O
100 kPa
Settings | electrical conductivity [S/m] | viscosity [mPa·s]
298.15 K, x1 = 0.9354 | 0.667 | –
303.15 K, x1 = 0.9354 | 0.833 | –
308.15 K, x1 = 0.9514 | – | 28.8
308.15 K, x1 = 0.9515 | 0.979 | –
308.15 K, x1 = 0.968 | – | 29.6
313.15 K, x1 = 0.9196 | – | 22.92
313.15 K, x1 = 0.9198 | 1.23 | –
318.15 K, x1 = 0.9681 | 1.27 | –
318.15 K, x2 = 0.01457 | 1.23 | –
323.15 K, x1 = 0.9196 | – | 15.16
323.15 K, x1 = 0.9198 | 1.67 | –
323.15 K, x1 = 0.968 | – | 16.91
323.15 K, x1 = 0.9681 | 1.5 | –
323.15 K, x2 = 0.01492 | – | 17.54
328.15 K, x1 = 0.9351 | – | 14.21
328.15 K, x1 = 0.9354 | 1.82 | –
328.15 K, x2 = 0.01457 | 1.65 | –
328.15 K, x2 = 0.01492 | – | 15.11
338.15 K, x1 = 0.9514 | – | 11.11
338.15 K, x1 = 0.9515 | 2.23 | –

CCCC[N+](C)(CCCC)CCCC.[Cl-] + O
viscosity
Settings | 293.15 K | 298.15 K | 303.15 K | 308.15 K | 313.15 K
100 kPa, x1 = 0.0003603 | 1.01 mPa·s | 0.904 mPa·s | 0.809 mPa·s | 0.726 mPa·s | 0.661 mPa·s
100 kPa, x1 = 0.0007023 | 1.024 mPa·s | 0.914 mPa·s | 0.815 mPa·s | 0.735 mPa·s | 0.671 mPa·s
100 kPa, x1 = 0.001062 | 1.035 mPa·s | 0.93 mPa·s | 0.829 mPa·s | 0.744 mPa·s | 0.686 mPa·s
100 kPa, x1 = 0.001422 | 1.045 mPa·s | 0.941 mPa·s | 0.839 mPa·s | 0.756 mPa·s | 0.694 mPa·s
101.3 kPa, x1 = 0.0003423 | 1.011 mPa·s | 0.904 mPa·s | 0.806 mPa·s | 0.729 mPa·s | 0.662 mPa·s
101.3 kPa, x1 = 0.0007203 | 1.023 mPa·s and 0.98 mPa·s and 1.04 mPa·s | 0.914 mPa·s and 0.88 mPa·s and 0.93 mPa·s | 0.812 mPa·s and 0.74 mPa·s and 0.83 mPa·s | 0.737 mPa·s and 0.65 mPa·s and 0.75 mPa·s | 0.672 mPa·s and 0.67 mPa·s
101.3 kPa, x1 = 0.001062 | 1.036 mPa·s | 0.931 mPa·s | 0.826 mPa·s | 0.747 mPa·s | 0.686 mPa·s
101.3 kPa, x1 = 0.00144 | 1.044 mPa·s and 0.97 mPa·s and 1.08 mPa·s | 0.942 mPa·s and 0.89 mPa·s and 0.96 mPa·s | 0.84 mPa·s and 0.77 mPa·s and 0.86 mPa·s | 0.759 mPa·s and 0.77 mPa·s | 0.695 mPa·s and 0.7 mPa·s

CCCC[n+]1ccn(C)c1.N#C[N-]C#N + O
100 kPa, x1 = 0.6252
Settings | viscosity [mPa·s]
303 K | 15.03
308 K | 12.94
313 K | 11.27
318 K | 9.91
323 K | 8.77

CCCC[n+]1ccn(C)c1.N#C[S-] + O
101 kPa
Settings | electrical conductivity [S/m] | viscosity [mPa·s]
298.15 K, x1 = 0.0004503 | 0.224 | –
298.15 K, x1 = 0.0009182 | 0.395 | –
298.15 K, x1 = 0.001853 | 0.716 | –
298.15 K, x1 = 0.00477 | 1.451 | –
298.15 K, x1 = 0.00776 | 1.952 | –
298.15 K, x1 = 0.01001 | 2.3 | –
298.15 K, x2 = 0.2007 | – | 33
298.15 K, x2 = 0.3169 | – | 25.9
298.15 K, x2 = 0.9437 | 4.47 | –
298.15 K, x2 = 0.9626 | 4.02 | –
298.15 K, x2 = 0.9781 | 3.33 | –
308.15 K, x2 = 0.2007 | – | 22.5
318.15 K, x2 = 0.2007 | – | 16.2
318.15 K, x2 = 0.3169 | – | 13.24
318.15 K, x2 = 0.7201 | – | 4.66
328.15 K, x2 = 0 | – | 16.7
328.15 K, x2 = 0.0998 | – | 14.22
328.15 K, x2 = 0.6426 | – | 4.71
328.15 K, x2 = 0.7201 | – | 3.65
338.15 K, x2 = 0.3169 | – | 7.96
338.15 K, x2 = 0.5296 | – | 5.12
338.15 K, x2 = 0.7949 | – | 2.23
348.15 K, x2 = 0.5296 | – | 4.16

CCCC[n+]1ccn(C)c1.N[C@@H](CO)C(=O)[O-] + O
100 kPa
Settings | electrical conductivity [S/m] | viscosity [mPa·s]
298.15 K, x1 = 0.8281 | 0.00761 | –
298.15 K, x1 = 0.8435 | 0.00711 | –
298.15 K, x1 = 0.8592 | 0.00675 | –
298.15 K, x1 = 0.8757 | 0.00646 | –
298.15 K, x1 = 0.8914 | 0.00609 | –
298.15 K, x1 = 0.8939 | – | 5180
298.15 K, x1 = 0.9163 | – | 5221
303.15 K, x1 = 0.8592 | 0.0107 | –
303.15 K, x1 = 0.8757 | 0.0101 | –
303.15 K, x1 = 0.8914 | 0.00973 | –
303.15 K, x1 = 0.8939 | – | 3031
308.15 K, x1 = 0.8757 | 0.0159 | –
313.15 K, x1 = 0.8939 | – | 1179
313.15 K, x1 = 0.939 | – | 1290
328.15 K, x1 = 0.8435 | 0.078 | –
328.15 K, x1 = 0.8521 | – | 338
328.15 K, x1 = 0.8592 | 0.0738 | –
328.15 K, x1 = 0.8939 | – | 367
328.15 K, x1 = 0.939 | – | 422
333.15 K, x1 = 0.8281 | 0.11 | –
333.15 K, x1 = 0.8592 | 0.1 | –
338.15 K, x1 = 0.8521 | – | 179.9
338.15 K, x1 = 0.8592 | 0.132 | –

CCCCn1cc[n+](CCCC)c1.O=S(=O)([N-]S(=O)(=O)C(F)(F)F)C(F)(F)F + O
100 kPa, x2 = 0.1843
Settings | viscosity [mPa·s]
308.15 K | 32.12
358.15 K | 7.83
363.15 K | 7.07

CCCn1cc[n+](C)c1.[Br-] + O
Settings | electrical conductivity | viscosity [mPa·s]
298 K, 101 kPa, x2 = 0.22 | 0.14 S/m and 0.17 S/m | –
298 K, 101 kPa, x2 = 0.88 | 9.16 S/m | –
298 K, 101 kPa, x2 = 0.93 | 9.89 S/m | –
298 K, 101 kPa, x2 = 0.98 | 6.44 S/m | –
303.15 K, 100 kPa, x1 = 0.4005 | – | 29.2
323.15 K, 100 kPa, x1 = 0.0497 | – | 1.09

CCOS(=O)(=O)[O-].CC[N+]1(C)CCCC1 + O
101 kPa
Settings | viscosity [mPa·s]
313.15 K, x2 = 0 | 78
313.15 K, x2 = 0.105 | 65
318.15 K, x2 = 0 | 65
318.15 K, x2 = 0.7542 | 8.9
323.15 K, x2 = 0.7542 | 7.7
333.15 K, x2 = 0.9652 | 0.99
338.15 K, x2 = 0.6505 | 7.7
338.15 K, x2 = 0.9652 | 0.98
343.15 K, x2 = 0.6505 | 6.6
343.15 K, x2 = 0.9652 | 0.98

CC[NH+](CC)CC.O=S(=O)([O-])O + O
298.15 K, 101 kPa
Settings | viscosity [mPa·s]
x2 = 0.3012 | 184
x2 = 0.4244 | 169
x2 = 0.6124 | 140
x2 = 0.7344 | 110.8
x2 = 0.9244 | 39.8
